Tests used:
C57B/L6 male mice [1] = experiment: Fasting plasma glucose in mice given 2-AAA chronically via drinking water; format: in vivo; settings: for fasting glucose levels: 2-AAA 500 mg/kg/day via drinking water, mean ± SEM
Experimental: FIGS. 2A and B are graphs depicting fasting plasma glucose levels in 2-AAA in mice fed either a standard chow (2A) or high-fat diet (2B). Fasting plasma glucose levels were measured weekly in mice fed either a standard chow (left) or high-fat diet (right) beginning at 6 weeks of age, with simultaneous 2-AAA treatment via drinking water (500/mg/kg/day) or water alone for the subsequent 5 weeks. (n=24 mice per condition) (*p<0.05; **p<0.01; ***p<0.001).
The effect of a Western-style diet on circulating 2-AAA levels in mice was examined. C57BL/6 male mice (Jackson Laboratories, Bar Harbor, Me.) were housed in separate cages with free access to food and water. Mice were fed a standard chow diet containing 22.5% protein, 52% carbohydrates, 6% fat, 6% ash and 4% fiber (Prolab Isopro RMH 3000, Brentwood, Mo.) or a high-fat diet containing 20 kcal % protein, 20 kcal % carbohydrate and 60 kcal % fat (DIO formula, D12492, Research Diets, Inc, New Brunswick, N.J.) as indicated. The total energy equivalent was 3.46 kcal/gm for the standard chow diet and 5.24 kcal/gm for the high fat diet.
(§1) Intervention studies in mice were completed to examine whether 2-AAA might play a contributory or compensatory role in glucose homeostasis by performing 2-AAA. For this study, four independent cohorts of 24 C57B/L6 male mice entered the study protocol at 6 weeks of age. Two cohorts received the standard chow diet and two cohorts received a high-fat diet. Half of the mice assigned to each diet received 2-AAA (500 mg/kg/day equivalent to a starting dose of 12.03±0.30 mM) via the drinking water for up to five weeks. Pre-weighed food and water were administered to each cage. Food and water intake was monitored weekly. Mice supplemented with 2-AAA had 33% higher plasma levels of this metabolite by one week of treatment (p=0.018).
Fasting plasma glucose levels were measured weekly in mice fed either a standard chow (left) or high-fat diet (right) beginning at 6 weeks of age, with simultaneous 2-AAA treatment via drinking water (500/mg/kg/day) or water alone for the subsequent 5 weeks. […]

[2] = Food intake and weight in control and 2-AAA treated mice; format: in vivo; settings: 2-AAA 500 mg/kg/day via drinking water, up to 5 weeks
Text: FIGS. 3A and 3B are graphs depicting serial weights and food intake in control and 2-AAA treated animals.
as §1
Fasting plasma glucose levels were measured weekly in mice fed either a standard chow (left) or high-fat diet (right) beginning at 6 weeks of age, with simultaneous 2-AAA treatment via drinking water (500/mg/kg/day) or water alone for the subsequent 5 weeks. (n=24 mice per condition) (*p<0.05; **p<0.01; ***p<0.001). For mice on the SCD, fasting glucose levels were 109.5±3.8 mg/dL for the 2-aminoadipic treated animals as compared to 124.5±4.9 mg/dL, for the untreated controls after 5 weeks (p<0.01, FIG. 2A). […]

C57B/L6 male mice [3] = experiment: Intra-peritoneal glucose tolerance test (IPGTT) after chronic 2-AAA treatment; format: in vivo; settings: IPGTT 1.5 mg/g; mice fed SCD and HFD for 5 weeks or greater
Experimental: FIG. 4 is a graph depicting plasma glucose levels in 2-AAA mice fed either a standard chow (left) or high-fat diet (right) following IPGTT challenge after completion of the 2-AAA chronic treatment in mice fed either the standard chow or high-fat diet. (n=12 mice per condition) (*p<0.05; **p<0.01).
(§2) Fasting insulin levels in mice were measured by an ELISA kit (Crystal Chem Inc., Downers Grove Ill.). After 5 weeks of 2-AAA treatment, and following a 6-hour fast, each group of mice was administered an intra-peritoneal glucose tolerance test (IPGTT; 1.5 mg/g of body weight; 75 mg/mL of glucose solution) or an insulin tolerance test (ITT; 0.00075 U of insulin/g of body weight, 0.15 U/ml insulin solution, Sigma-Aldrich, St. Louis, Mo.). For the IPGTT, venous blood samples were obtained from the tail vein immediately prior to glucose injection and then serially at 30, 60, and 120 minutes following the injection. For the ITT, venous blood samples were obtained from the tail vein immediately prior to the insulin injection and then serially at 15, 30, 45 and 60 minutes following the injection.
(§3) Additional studies were performed using acute physiologic challenges, including acute glucose and insulin administration. As expected, mice fed a HFD had more pronounced glucose excursions following the glucose challenge (FIG. 4). […]

C57B/L6 male mice [4] = experiment: Fasting plasma insulin levels (ELISA) after 2-AAA treatment; format: in vivo; settings: after 5 weeks of 2-AAA; increase seen in HFD animals
Experimental: FIG. 5 is a graph depicting fasting plasma insulin levels in 2-AAA mice fed either a standard chow (left) or high-fat diet (right) measured following completion of the 2-AAA treatment (5 weeks) in the mice on both diets (n=12 mice per condition) (*p<0.05).
as §2, §3

C57B/L6 male mice [5] = experiment: Insulin tolerance test (ITT, acute insulin challenge) after 2-AAA treatment; format: in vivo; settings: ITT 0.00075 U insulin/g; SCD and HFD
Experimental: FIGS. 6A and 6B are graphs depicting plasma glucose levels 2-AAA mice fed either a standard chow (left) or high-fat diet (right) measured following acute insulin challenge (n=15 per condition).
as §2
as §3, with “4). In mice fed both the SCD and HFD for 5 weeks or greater, peak glucose concentrations following the glucose challenge were lower in the 2-AAA treated mice.” for “4).”

[6] = Plasma 2-AAA level in mice supplemented with 2-AAA; format: in vivo; settings: 500 mg/kg/day via drinking water; by one week of treatment; p=0.018
Experimental: as §1
For the perigonadal adipose tissue, metabolites were first extracted by mixing harvested tissues with 6 μL per 1 mg of adipose tissue of a MeOH:Chloroform solution (2:1 v/v). The extracted adipose tissues were then homogenized for 4 minutes at 25 Hz in a TissueLyser II. […] A calibration curve using 2-AAA d3 (C/D/N Isotopes Inc, Quebec Canada) was generated for absolute quantitation of 2-AAA in plasma and tissue samples. […] An isotopically labeled standard was used to facilitate absolute quantitation of the metabolite of interest in the setting of the different biological matrices.

Beta TC6 (BTC6) cells = experiment: Insulin secretion by BTC6 pancreatic beta cell line; format: cell-based, mouse; settings: for insulin secretion: 100 μM, 2.5 mM glucose
Experimental: FIG. 8A is a graph depicting percent insulin secretion by BTC6 cells following incubation with 2-AAA at concentrations ranging from 0 to 100 μM for 0.5 to 72 hours.
FIG. 8B is a graph depicting the effects of 2-AAA (30 μM), clonidine (100 μM) and phentolamine (100 μM) on insulin secretion by BTC6 cells.
To investigate the connection between 2-AAA and the pancreas, insulin production by a pancreatic beta cell line that was acutely and chronically exposed to 2-AAA. Beta TC6 (BTC6) cells, an established model to examine insulin secretion (mouse insulinoma beta-TC-6 (ATCC® CRL-11506™) from ATCC (Manassas, Va.)) (27-29), were used at passage number 4-7, grown in DMEM (ATCC 2002-30), 15% FBS, with penicillin/streptomycin (100 IU/ml/100 μg/ml). Cells were plated on 24 well collagen plates at 40,000 cells per well, incubated with 2-AAA at varying concentrations ranging from 0 to 100 μM for 0 to 72 hours to assess whether this compound increases insulin secretion in a time and/or dose dependent fashion. On the day of experimentation, the cells were washed with PBS and the media was changed to DMEM without FBS or glucose to which 0.1% BSA was added. After 1 hour of incubation, this media was changed to serum free media containing 2.5 mM of glucose. Insulin production was measured in the supernatant after 1 additional hour of incubation. To assess the time response relationship, 2-AAA was added to the cells after plating on collagen and incubated for 0.5, 2, 6, and 72 hours.

[7] = system: Islets from male C57BL/6J mice; experiment: Insulin secretion from isolated mouse islets; format: cell-based; settings: 30 μM 2-AAA for 6 hours; 2.5 mmol/l glucose; normalized to islet content
Experimental: FIG. 9 is a graph depicting insulin secretion from islets isolated from male C57BL/6J mice following incubation with 30 μM 2-AAA for 6 hours. Insulin was assayed using the Meso Scale Discovery multi array assay system for mouse/rat total insulin (Gaithersburg, Md., USA). Secretion was normalized to islet content. (n=3, p=0.016)
Islets from male C57BL/6J mice were isolated by collagenase digestion of the pancreas, purified by Ficoll density gradient and then handpicked. Mouse islets were cultured for 24 hours as previously described (26). For insulin secretion experiments, 15 islets were placed in each microcentrifuge tube and incubated in islet secretion buffer containing (in mmol/1) 120 NaCl, 5 KCl, 1 CaCl2, 1.2 MgCl2, 24 NaHCO3, 10 HEPES, and 2.5 glucose, bubbled with 95% O2/5% CO2 and supplemented with 0.5% (wt/vol) BSA. Experiments were performed by incubating islets in 1 ml of secretion buffer in the presence or absence of 30 μM 2-AAA for 6 hours at 37° C., 5% CO2. Insulin was assayed using the Meso Scale Discovery multi array assay system for mouse/rat total insulin (Gaithersburg, Md., USA). Secretion was normalized to islet content.

| differences in food intake or weight between treated and control mice [2] | increase in plasma levels of 2-AAA versus unsupplemented mice [6] | Structure (SMILES) | fasting glucose levels in treated mice versus water alone (C57B/L6 male mice [1]; both diets, p<0.001 by 2-way ANOVA after 5 weeks) | fasting glucose levels (C57B/L6 male mice [1]; mice on high-fat diet (HFD), at 5 weeks) | fasting glucose levels (C57B/L6 male mice [1]; mice on standard chow diet (SCD), after 5 weeks) | peak glucose concentrations following the glucose challenge versus control (C57B/L6 male mice [3]) | fasting insulin levels versus untreated animals (C57B/L6 male mice [4]) | effect on rate of decline in glucose levels following acute insulin challenge (C57B/L6 male mice [5]) | insulin secretion from BTC6 cells (Beta TC6 (BTC6) cells; 2-AAA 0 to 100 μM for 0.5 to 72 hours) | incubation time at which augmented insulin secretion was evident (Beta TC6 (BTC6) cells; BTC6 cells) | peak insulin secretion relative to that of phentolamine (172±8% of control) (Beta TC6 (BTC6) cells; BTC6 cells, 2-AAA 30 μM vs phentolamine 100 μM) | insulin release from islets [7] | insulin secretion (Beta TC6 (BTC6) cells; BTC6 cells) |
| --- | --- | --- | --- | --- | --- | --- | --- | --- | --- | --- | --- | --- | --- |
| no significant differences | 33% | N[C@H](CCCC(=O)O)C(=O)O (stereo in doubt) [2-AAA, 2-aminoadipic acid] | consistently lower | 134.5 ± 5.9 mg/dL | 109.5 ± 3.8 mg/dL | lower | further augmented | no effect | induced insulin secretion from BTC6 cells in a dose and time dependent fashion | at least 6 hours | comparable | release insulin | – |
| – | – | Clc1cccc(Cl)c1N=C1NCCN1 [clonidine, reference compound] | – | – | – | – | – | – | – | – | – | – | 60±3 % of control |
| – | – | Cc1ccc(N(CC2=NCCN2)c2cccc(O)c2)cc1 [phentolamine, reference compound] | – | – | – | – | – | – | – | – | – | – | 172±8 % of control |

From patent publication US20160030373A1, “2-AAA as a Biomarker and Therapeutic Agent for Diabetes” (THE GENERAL HOSPITAL CORPORATION, priority 2013, published 2016)
